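Compound exposure: 48 hours, 5 concentrations, 96-well plates. At the GI50, growth is halved. At the TGI there is no net growth.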
Experiments:
Assay in all cases: DTP human tumour cell line panel, 48 h
[1] = system: 786-0 renal
[2] = system: DLD-1 colon
[3] = system: UO-31 renal
[4] = system: COLO 205 colon
[5] = system: A549 NSCLC
[6] = system: A498 renal
[7] = system: IGROV1 ovarian
[8] = system: NCI-H460 lung
[9] = system: LOX IMVI melanoma
[10] = system: DMS 273 small cell lung
[11] = system: RXF 393 renal
[12] = system: HOP-18 NSCLC
[13] = system: MOLT-4 leukemia
[14] = system: SK-MEL-28 melanoma
[15] = system: TK-10 renal
[16] = system: HT29 colon
[17] = system: RPMI-8226 leukemia
[18] = system: LXFL 529 NSCLC
[19] = system: SR leukemia
[20] = system: SK-MEL-5 melanoma
[21] = system: NCI-H23 lung
[22] = system: KM12 colon
[23] = system: M19-MEL melanoma
[24] = system: UACC-62 melanoma
[25] = system: OVCAR-8 ovarian
[26] = system: SF-295 CNS
[27] = system: ACHN renal
[28] = system: DMS 114 small cell lung
[29] = system: M14 melanoma
[30] = system: SF-268 CNS
[31] = system: OVCAR-4 ovarian
[32] = system: SW-620 colon
[33] = system: SNB-19 CNS
[34] = system: SF-539 CNS
[35] = system: HL-60(TB) leukemia
[36] = system: NCI-H226 lung
[37] = system: U251 CNS
[38] = system: OVCAR-5 ovarian
[39] = system: EKVX NSCLC
[40] = system: SNB-75 CNS
[41] = system: OVCAR-3 ovarian
[42] = system: SNB-78 CNS
[43] = system: CCRF-CEM leukemia
[44] = system: K-562 leukemia
[45] = system: SK-OV-3 ovarian
[46] = system: HOP-92 NSCLC
[47] = system: SN12C renal
[48] = system: CAKI-1 renal
[49] = system: HCC-2998 colon
[50] = system: HCT-116 colon
[51] = system: HCT-15 colon
[52] = system: NCI-H522 lung
[53] = system: MALME-3M melanoma
[54] = system: HOP-62 NSCLC
[55] = system: UACC-257 melanoma
[56] = system: KM20L2 colon
[57] = system: SK-MEL-2 melanoma

## O=C1C=C(c2[nH]c3ccccc3c2C2=CC(=O)c3ccccc3C2=O)C(=O)c2ccccc21
[1]
  TGI: > 100 µM
[2]
  TGI: > 100 µM
[3]
  TGI: > 100 µM
[4]
  TGI: > 100 µM
[5]
  TGI: > 100 µM
[6]
  TGI: > 100 µM
[7]
  TGI: 95.6 µM
[8]
  TGI: > 100 µM
[9]
  TGI: 59 µM
[10]
  TGI: > 100 µM
[11]
  TGI: > 100 µM
[12]
  TGI: > 100 µM
[13]
  TGI: 35.7 µM
[14]
  TGI: > 100 µM
[15]
  TGI: > 100 µM
[16]
  TGI: > 100 µM
[17]
  TGI: > 100 µM
[18]
  TGI: > 100 µM
[19]
  TGI: 57.1 µM
[20]
  TGI: > 100 µM
[21]
  TGI: > 100 µM
[22]
  TGI: > 100 µM
[23]
  TGI: 35.4 µM
[24]
  TGI: 71.3 µM
[25]
  TGI: > 100 µM
[26]
  TGI: > 100 µM
[27]
  TGI: > 100 µM
[28]
  TGI: 36.6 µM
[29]
  TGI: > 100 µM
[30]
  TGI: > 100 µM
[31]
  TGI: > 100 µM
[32]
  TGI: > 100 µM
[33]
  TGI: > 100 µM
[34]
  TGI: > 100 µM
[35]
  TGI: 44.4 µM
[36]
  TGI: > 100 µM
[37]
  TGI: > 100 µM
[38]
  TGI: > 100 µM
[39]
  TGI: > 100 µM
[40]
  TGI: 57.6 µM
[41]
  TGI: 88.3 µM
[42]
  TGI: > 100 µM
[43]
  TGI: 43.9 µM
[44]
  TGI: 60.1 µM
[45]
  TGI: > 100 µM

## C=CCCCCCCCC(O)C1C[C@H](O)C(CCCCC)O1 (stereo partly drawn)
[1]
  TGI: 32.2 µM
[2]
  TGI: 31 µM
[3]
  TGI: 31.9 µM
[4]
  TGI: 34.5 µM
[5]
  TGI: 37.5 µM
[6]
  TGI: 36.1 µM
[7]
  TGI: 42.2 µM
[8]
  TGI: 37.2 µM
[9]
  TGI: 36.1 µM
[10]
  TGI: 32.8 µM
[11]
  TGI: 37.7 µM
[12]
  TGI: 32.1 µM
[13]
  TGI: 43.6 µM
[14]
  TGI: 33.7 µM
[15]
  TGI: 34.8 µM
[16]
  TGI: 35.6 µM
[17]
  TGI: 43.9 µM
[18]
  TGI: 29 µM
[20]
  TGI: 34.7 µM
[21]
  TGI: 36.8 µM
[22]
  TGI: 41.3 µM
[23]
  TGI: 35.9 µM
[24]
  TGI: 29.6 µM
[25]
  TGI: 40.2 µM
[46]
  TGI: 30.7 µM
[26]
  TGI: 33 µM
[27]
  TGI: 36.6 µM
[28]
  TGI: 37 µM
[29]
  TGI: 34.6 µM
[47]
  TGI: 36 µM
[32]
  TGI: 41.7 µM
[34]
  TGI: 30.7 µM
[48]
  TGI: 34.6 µM
[49]
  TGI: 33.4 µM
[35]
  TGI: 37.4 µM
[50]
  TGI: 34.5 µM
[36]
  TGI: 29.6 µM
[37]
  TGI: 31.3 µM
[51]
  TGI: 40 µM
[39]
  TGI: 36.7 µM
[52]
  TGI: 35.1 µM
[40]
  TGI: 29.7 µM
[41]
  TGI: 32.7 µM
[42]
  TGI: 45.1 µM
[43]
  TGI: 41.6 µM
[53]
  TGI: 33.5 µM
[44]
  TGI: 47.6 µM
[45]
  TGI: 43.2 µM

## CN=c1ss/c(=N\C(=S)N(C)C)n1-c1ccccc1
[1]
  TGI: > 100 µM
[2]
  TGI: > 100 µM
[3]
  TGI: > 100 µM
[4]
  TGI: > 100 µM
[5]
  TGI: > 100 µM
[6]
  TGI: > 100 µM
[7]
  TGI: > 100 µM
[8]
  TGI: > 100 µM
[9]
  TGI: > 100 µM
[10]
  TGI: > 100 µM
[11]
  TGI: > 82.1 µM
[12]
  TGI: > 100 µM
[13]
  TGI: > 100 µM
[14]
  TGI: > 100 µM
[15]
  TGI: > 100 µM
[16]
  TGI: > 31.6 µM
[17]
  TGI: > 100 µM
[18]
  TGI: > 100 µM
[19]
  TGI: > 100 µM
[20]
  TGI: > 100 µM
[21]
  TGI: > 100 µM
[22]
  TGI: > 100 µM
[23]
  TGI: > 100 µM
[24]
  TGI: > 100 µM
[25]
  TGI: > 100 µM
[46]
  TGI: > 100 µM
[26]
  TGI: > 100 µM
[54]
  TGI: > 100 µM
[27]
  TGI: > 100 µM
[55]
  TGI: > 100 µM
[28]
  TGI: > 100 µM
[29]
  TGI: > 100 µM
[30]
  TGI: > 100 µM
[31]
  TGI: > 100 µM
[47]
  TGI: > 100 µM
[32]
  TGI: > 100 µM
[33]
  TGI: > 100 µM
[34]
  TGI: > 100 µM
[48]
  TGI: > 100 µM
[49]
  TGI: > 100 µM
[35]
  TGI: > 100 µM
[50]
  TGI: > 100 µM
[36]
  TGI: > 100 µM
[37]
  TGI: > 100 µM
[56]
  TGI: > 100 µM
[38]
  TGI: > 100 µM
[51]
  TGI: > 100 µM
[39]
  TGI: > 100 µM
[52]
  TGI: > 28.5 µM
[57]
  TGI: > 100 µM
[40]
  TGI: 42.6 µM
[41]
  TGI: > 100 µM
[42]
  TGI: > 100 µM
[43]
  TGI: > 100 µM
[53]
  TGI: > 100 µM
[44]
  TGI: > 100 µM
[45]
  TGI: > 100 µM

## NC1CCCCC1N.O=C([O-])c1cc(S(=O)(=O)Nc2cc(S(=O)(=O)[O-])cc3cc(S(=O)(=O)[O-])cc(O)c23)ccc1[O-].[Pt+4]
[1]
  GI50: > 100 µM
  TGI: > 100 µM
[2]
  GI50: > 100 µM
  TGI: > 100 µM
[3]
  GI50: > 100 µM
  TGI: > 100 µM
[4]
  GI50: > 100 µM
  TGI: > 100 µM
[5]
  GI50: 61.6 µM
  TGI: > 100 µM
[6]
  GI50: > 100 µM
  TGI: > 100 µM
[7]
  GI50: > 100 µM
  TGI: > 100 µM
[8]
  GI50: 41.8 µM
  TGI: > 100 µM
[9]
  GI50: > 100 µM
  TGI: > 100 µM
[10]
  GI50: > 100 µM
  TGI: > 100 µM
[11]
  GI50: > 100 µM
  TGI: > 100 µM
[12]
  GI50: > 100 µM
  TGI: > 100 µM
[13]
  GI50: > 100 µM
  TGI: > 100 µM
[14]
  GI50: > 100 µM
  TGI: > 100 µM
[15]
  GI50: > 100 µM
  TGI: > 100 µM
[16]
  GI50: > 100 µM
  TGI: > 100 µM
[17]
  GI50: 89.5 µM
  TGI: > 100 µM
[18]
  GI50: > 100 µM
  TGI: > 100 µM
[20]
  GI50: 88.7 µM
  TGI: > 100 µM
[21]
  GI50: > 100 µM
  TGI: > 100 µM
[22]
  GI50: > 100 µM
  TGI: > 100 µM
[23]
  GI50: > 100 µM
  TGI: > 100 µM
[24]
  GI50: > 100 µM
  TGI: > 100 µM
[25]
  GI50: > 100 µM
  TGI: > 100 µM
[26]
  GI50: > 100 µM
  TGI: > 100 µM
[54]
  GI50: > 100 µM
  TGI: > 100 µM
[27]
  GI50: > 100 µM
  TGI: > 100 µM
[55]
  GI50: > 100 µM
  TGI: > 100 µM
[29]
  GI50: > 100 µM
  TGI: > 100 µM
[30]
  GI50: > 100 µM
  TGI: > 100 µM
[31]
  GI50: > 100 µM
  TGI: > 100 µM
[47]
  GI50: > 100 µM
  TGI: > 100 µM
[32]
  GI50: > 100 µM
  TGI: > 100 µM
[33]
  GI50: > 100 µM
  TGI: > 100 µM
[34]
  GI50: > 100 µM
  TGI: > 100 µM
[48]
  GI50: > 100 µM
  TGI: > 100 µM
[49]
  GI50: > 100 µM
  TGI: > 100 µM
[35]
  GI50: 89.8 µM
  TGI: > 100 µM
[50]
  GI50: > 100 µM
  TGI: > 100 µM
[36]
  GI50: > 100 µM
  TGI: > 100 µM
[37]
  GI50: > 100 µM
  TGI: > 100 µM
[56]
  GI50: > 100 µM
  TGI: > 100 µM
[38]
  GI50: > 100 µM
  TGI: > 100 µM
[51]
  GI50: > 100 µM
  TGI: > 100 µM
[39]
  GI50: > 100 µM
  TGI: > 100 µM
[52]
  GI50: > 100 µM
  TGI: > 100 µM
[57]
  GI50: > 100 µM
  TGI: > 100 µM
[40]
  GI50: > 100 µM
  TGI: > 100 µM
[41]
  GI50: > 100 µM
  TGI: > 100 µM
[42]
  GI50: > 100 µM
  TGI: > 100 µM
[43]
  GI50: > 100 µM
  TGI: > 100 µM
[53]
  GI50: 63.5 µM
  TGI: > 100 µM
[44]
  GI50: > 100 µM
  TGI: > 100 µM
[45]
  GI50: > 100 µM
  TGI: > 100 µM
